Reference: ChEMBL document CHEMBL1124998, “3-(2-carboxyindol-3-yl)propionic acid derivatives: antagonists of the strychnine-insensitive glycine receptor associated with the N-methyl-D-aspartate receptor complex” (J Med Chem, 1990)

Columns and labels:
[1] = target: Glutamate NMDA receptor (Rattus norvegicus) (UniProt P35439+Q00959+Q00960+Q00961+Q62645+Q8VHN2+Q9R1M7); test: Selectivity ratio for CPP and gly NMDA binding; type: protein-complex assay
[2] = target: Glutamate NMDA receptor; test: Activity against rat cortical and hippocampal membrane N-methyl-D-aspartate glutamate receptor 1/2A/2B/2C/2D using [3H]CPP; type: tissue-based, Hippocampus
[3] = target: Glutamate NMDA receptor; test: Activity against rat cortical and hippocampal membrane strychnine-insensitive N-methyl-D-aspartate glutamate receptor 1 using [3H]-gly; type: tissue-based, Hippocampus
[4] = species: Rattus norvegicus; test: Activity was determined by inhibition of glutamate stimulated accumulation of cyclic GMP in neonatal rat cerebral slices.; type: functional

SMILES	Ratio [1]	IC50 [2]	IC50 [3]	IC50 [4]
O=C(O)CCc1c(C(=O)O)[nH]c2c(Cl)cccc12	> 1	> 100 µM	90 µM	–
O=C(O)CCc1c(C(=O)O)[nH]c2ccccc12	1	34 µM	30 µM	–
O=C(O)c1cc2ccccc2[nH]1 [INDOLE-2-CARBOXYLIC ACID]	40	4200 µM	106 µM	–
O=C(O)c1cc2c(Cl)cc(Cl)cc2[nH]1	> 150	> 1000 µM	6 µM	–
O=C(O)CCc1c(C(=O)O)[nH]c2cc(Cl)ccc12	105	283 µM	2.7 µM	–
O=C(O)CCc1c(C(=O)O)[nH]c2cccc(Cl)c12	10	59 µM	6 µM	–
O=C(O)c1cc(O)c2c(Cl)cc(Cl)cc2n1	150	12 µM	0.08 µM	2.5 µM
O=C(O)CCc1c(C(=O)O)[nH]c2ccc(Cl)cc12	1.8	25 µM	14 µM	–
O=C(O)c1cc(O)c2ccc(Cl)cc2n1 [7-CHLOROKYNURENIC ACID]	405	162 µM	0.4 µM	8 µM
O=C(O)CCc1c(C(=O)O)[nH]c2cc(Cl)cc(Cl)c12	2550	358 µM	0.14 µM	5 µM
O=C(O)c1cc(=O)c2ccccc2[nH]1 [TRANSTORINE]	–	–	–	167 µM
